Data as given in the NIST ThermoML archive (doi:10.1021/acs.jced.6b00178).
± gives the expanded uncertainty stated by the source.

Assay: xn = mol fraction of the nth substance listed
Settings: 100 kPa, Liquid, x1 = 1; for viscosity: Concentric cylinders viscometry; for mass density: Vibrating tube method

Row | SMILES | viscosity (283.15 K) [mPa·s] | mass density (283.15 K) [kg/m3] | viscosity (288.15 K) [mPa·s] | mass density (288.15 K) [kg/m3] | viscosity (293.15 K) [mPa·s] | mass density (293.15 K) [kg/m3] | viscosity (298.15 K) [mPa·s] | mass density (298.15 K) [kg/m3] | viscosity (303.15 K) [mPa·s] | mass density (303.15 K) [kg/m3] | viscosity (308.15 K) [mPa·s] | mass density (308.15 K) [kg/m3] | viscosity (313.15 K) [mPa·s] | mass density (313.15 K) [kg/m3] | viscosity (318.15 K) [mPa·s] | mass density (318.15 K) [kg/m3] | viscosity (323.15 K) [mPa·s] | mass density (323.15 K) [kg/m3] | viscosity (328.15 K) [mPa·s] | mass density (328.15 K) [kg/m3] | other results
1 | CCCC[n+]1ccn(C)c1.O=S(=O)([N-]S(=O)(=O)C(F)(F)F)C(F)(F)F + CC(=O)[O-].CCCCn1cc[n+](C)c1 | 106.78 ± 5.5 | 1451.8 ± 0.8 | 82.14 ± 4.2 | 1446.9 ± 0.8 | 66.36 ± 3.3 | 1442.1 ± 0.8 | 51.58 ± 2.6 | 1437.2 ± 0.8 | 41.94 ± 2.1 | 1432.4 ± 0.7 | 34.6 ± 1.7 | 1427.6 ± 0.7 | 29.48 ± 1.5 | 1422.9 ± 0.7 | 24.47 ± 1.2 | 1418.2 ± 0.7 | 20.93 ± 1.1 | 1413.5 ± 0.7 | 18.07 ± 0.91 | 1408.8 ± 0.7 | viscosity (333.15 K): 15.95 ± 0.8 mPa·s; mass density (333.15 K): 1404.1 ± 0.7 kg/m3; viscosity (338.15 K): 13.83 ± 0.7 mPa·s; mass density (338.15 K): 1399.4 ± 0.7 kg/m3; viscosity (343.15 K): 12.23 ± 0.62 mPa·s; mass density (343.15 K): 1394.8 ± 0.7 kg/m3; viscosity (348.15 K): 10.9 ± 0.55 mPa·s; mass density (348.15 K): 1390.2 ± 0.7 kg/m3; viscosity (353.15 K): 9.985 ± 0.5 mPa·s; mass density (353.15 K): 1385.6 ± 0.7 kg/m3; viscosity (358.15 K): 8.806 ± 0.44 mPa·s; mass density (358.15 K): 1381.1 ± 0.7 kg/m3; viscosity (363.15 K): 7.98 ± 0.4 mPa·s; mass density (363.15 K): 1376.6 ± 0.7 kg/m3
2 | CCCC[n+]1ccn(C)c1.O=S(=O)([N-]S(=O)(=O)C(F)(F)F)C(F)(F)F + CCCCn1cc[n+](C)c1.COP(=O)([O-])OC | 106.78 ± 5.5 | 1451.8 ± 0.8 | 82.14 ± 4.2 | 1446.9 ± 0.8 | 66.36 ± 3.3 | 1442.1 ± 0.8 | 51.58 ± 2.6 | 1437.2 ± 0.8 | 41.94 ± 2.1 | 1432.4 ± 0.7 | 34.6 ± 1.7 | 1427.6 ± 0.7 | 29.48 ± 1.5 | 1422.9 ± 0.7 | 24.47 ± 1.2 | 1418.2 ± 0.7 | 20.93 ± 1.1 | 1413.5 ± 0.7 | 18.07 ± 0.91 | 1408.8 ± 0.7 | viscosity (333.15 K): 15.95 ± 0.8 mPa·s; mass density (333.15 K): 1404.1 ± 0.7 kg/m3; viscosity (338.15 K): 13.83 ± 0.7 mPa·s; mass density (338.15 K): 1399.4 ± 0.7 kg/m3; viscosity (343.15 K): 12.23 ± 0.62 mPa·s; mass density (343.15 K): 1394.8 ± 0.7 kg/m3; viscosity (348.15 K): 10.9 ± 0.55 mPa·s; mass density (348.15 K): 1390.2 ± 0.7 kg/m3; viscosity (353.15 K): 9.985 ± 0.5 mPa·s; mass density (353.15 K): 1385.6 ± 0.7 kg/m3; viscosity (358.15 K): 8.806 ± 0.44 mPa·s; mass density (358.15 K): 1381.1 ± 0.7 kg/m3; viscosity (363.15 K): 7.98 ± 0.4 mPa·s; mass density (363.15 K): 1376.6 ± 0.7 kg/m3
3 | CCCC[n+]1ccn(C)c1.O=S(=O)([N-]S(=O)(=O)C(F)(F)F)C(F)(F)F + CCCCn1cc[n+](C)c1.F[P-](F)(F)(F)(F)F | 106.77 ± 5.5 | 1451.8 ± 0.8 | 82.16 ± 4.2 | 1446.9 ± 0.8 | 64.53 ± 3.3 | 1442.1 ± 0.8 | 51.6 ± 2.6 | 1437.2 ± 0.8 | 41.93 ± 2.1 | 1432.4 ± 0.7 | 34.59 ± 1.7 | 1427.6 ± 0.7 | 28.91 ± 1.5 | 1422.8 ± 0.7 | 24.46 ± 1.2 | 1418.1 ± 0.7 | 20.91 ± 1.1 | 1413.4 ± 0.7 | 18.05 ± 0.91 | 1408.7 ± 0.7 | viscosity (333.15 K): 15.72 ± 0.79 mPa·s; mass density (333.15 K): 1404 ± 0.7 kg/m3; viscosity (338.15 K): 13.8 ± 0.69 mPa·s; mass density (338.15 K): 1399.3 ± 0.7 kg/m3; viscosity (343.15 K): 12.2 ± 0.61 mPa·s; mass density (343.15 K): 1394.7 ± 0.7 kg/m3; viscosity (348.15 K): 10.86 ± 0.55 mPa·s; mass density (348.15 K): 1390.1 ± 0.7 kg/m3; viscosity (353.15 K): 9.72 ± 0.49 mPa·s; mass density (353.15 K): 1385.5 ± 0.7 kg/m3; viscosity (358.15 K): 8.754 ± 0.44 mPa·s; mass density (358.15 K): 1381 ± 0.7 kg/m3; viscosity (363.15 K): 7.926 ± 0.4 mPa·s; mass density (363.15 K): 1376.4 ± 0.7 kg/m3
4 | CCCC[n+]1ccn(C)c1.O=S(=O)([N-]S(=O)(=O)C(F)(F)F)C(F)(F)F + CCCCn1cc[n+](C)c1.N#CN=C=[N-] | 106.77 ± 5.5 | 1451.8 ± 0.8 | 82.16 ± 4.2 | 1446.9 ± 0.8 | 64.53 ± 3.3 | 1442.1 ± 0.8 | 51.6 ± 2.6 | 1437.2 ± 0.8 | 41.93 ± 2.1 | 1432.4 ± 0.7 | 34.59 ± 1.7 | 1427.6 ± 0.7 | 28.91 ± 1.5 | 1422.8 ± 0.7 | 24.46 ± 1.2 | 1418.1 ± 0.7 | 20.91 ± 1.1 | 1413.4 ± 0.7 | 18.05 ± 0.91 | 1408.7 ± 0.7 | viscosity (333.15 K): 15.72 ± 0.79 mPa·s; mass density (333.15 K): 1404 ± 0.7 kg/m3; viscosity (338.15 K): 13.8 ± 0.69 mPa·s; mass density (338.15 K): 1399.3 ± 0.7 kg/m3; viscosity (343.15 K): 12.2 ± 0.61 mPa·s; mass density (343.15 K): 1394.7 ± 0.7 kg/m3; viscosity (348.15 K): 10.86 ± 0.55 mPa·s; mass density (348.15 K): 1390.1 ± 0.7 kg/m3; viscosity (353.15 K): 9.72 ± 0.49 mPa·s; mass density (353.15 K): 1385.5 ± 0.7 kg/m3; viscosity (358.15 K): 8.754 ± 0.44 mPa·s; mass density (358.15 K): 1381 ± 0.7 kg/m3; viscosity (363.15 K): 7.926 ± 0.4 mPa·s; mass density (363.15 K): 1376.4 ± 0.7 kg/m3
